Results from patent US20230263825A1, “ANTI-CANCER ACTIVITY OF PERBORATE SALTS” (priority 2020, published 2023).
Entries after “also recorded” stand apart in the source; their conditions may differ.

Experiment: Toxicology in rats, oral, histopathology
Format: in vivo
Description: After 32 days, the rats were sacrificed and their organs were examined under a microscope.

O.O.O.O.[Na+].[O-]B1OO1 [sodium perborate tetrahydrate]
KIDNEY Edema, No Exam (rat, in vivo, po, 4 mg/kg): 0/10
KIDNEY Notable or abnormal, % (rat, in vivo, po, 4 mg/kg): 0%
KIDNEY Notable or abnormal, No Exam (rat, in vivo, po, 4 mg/kg): 0/10
KIDNEY Within normal limits, % (rat, in vivo, po, 4 mg/kg): 100%
KIDNEY Within normal limits, No Exam (rat, in vivo, po, 4 mg/kg): 10/10
LIVER Fattening, % (rat, in vivo, po, 4 mg/kg): 0%
LIVER Fattening, No Exam (rat, in vivo, po, 4 mg/kg): 0/10
LIVER Infiltration, % (rat, in vivo, po, 4 mg/kg): 0%
LIVER Infiltration, No Exam (rat, in vivo, po, 4 mg/kg): 0/10
LIVER Notable or abnormal, % (rat, in vivo, po, 4 mg/kg): 0%
LIVER Notable or abnormal, No Exam (rat, in vivo, po, 4 mg/kg): 0/10
LIVER Within normal limits, % (rat, in vivo, po, 4 mg/kg): 100%
LIVER Within normal limits, No Exam (rat, in vivo, po, 4 mg/kg): 10/10
LUNG Lymphocytic infiltration, % (rat, in vivo, po, 4 mg/kg): 0%
LUNG Lymphocytic infiltration, No Exam (rat, in vivo, po, 4 mg/kg): 0/10
LUNG Notable or abnormal, % (rat, in vivo, po, 4 mg/kg): 0%
LUNG Notable or abnormal, No Exam (rat, in vivo, po, 4 mg/kg): 0/10
LUNG Pulmonary edema, % (rat, in vivo, po, 4 mg/kg): 0%
LUNG Pulmonary edema, No Exam (rat, in vivo, po, 4 mg/kg): 0/10
LUNG Within normal limits, % (rat, in vivo, po, 4 mg/kg): 100%
LUNG Within normal limits, No Exam (rat, in vivo, po, 4 mg/kg): 10/10
PANCREAS Notable or abnormal, % (rat, in vivo, po, 4 mg/kg): 0%
PANCREAS Notable or abnormal, No Exam (rat, in vivo, po, 4 mg/kg): 0/10
PANCREAS Within normal limits, % (rat, in vivo, po, 4 mg/kg): 100%
PANCREAS Within normal limits, No Exam (rat, in vivo, po, 4 mg/kg): 10/10
SPLEEN Notable or abnormal, % (rat, in vivo, po, 4 mg/kg): 0%
SPLEEN Notable or abnormal, No Exam (rat, in vivo, po, 4 mg/kg): 0/10
SPLEEN Within normal limits, % (rat, in vivo, po, 4 mg/kg): 100%
SPLEEN Within normal limits, No Exam (rat, in vivo, po, 4 mg/kg): 10/10
STOMACH Notable or abnormal, % (rat, in vivo, po, 4 mg/kg): 0%
STOMACH Notable or abnormal, No Exam (rat, in vivo, po, 4 mg/kg): 0/10
STOMACH Within normal limits, % (rat, in vivo, po, 4 mg/kg): 100%
STOMACH Within normal limits, No Exam (rat, in vivo, po, 4 mg/kg): 10/10
HEART Notable or abnormal, % (rat, in vivo, po, 8 mg/kg/day): 0%
HEART Notable or abnormal, No Exam (rat, in vivo, po, 8 mg/kg/day): 0/10
HEART Within normal limits, % (rat, in vivo, po, 8 mg/kg/day): 100%
HEART Within normal limits, No Exam (rat, in vivo, po, 8 mg/kg/day): 10/10
INTESTINE, Large Notable or abnormal, % (rat, in vivo, po, 8 mg/kg/day): 0%
INTESTINE, Large Notable or abnormal, No Exam (rat, in vivo, po, 8 mg/kg/day): 0/10
INTESTINE, Large Within normal limits, % (rat, in vivo, po, 8 mg/kg/day): 100%
INTESTINE, Large Within normal limits, No Exam (rat, in vivo, po, 8 mg/kg/day): 10/10
INTESTINE, Small Enteritis, % (rat, in vivo, po, 8 mg/kg/day): 10%
INTESTINE, Small Enteritis, No Exam (rat, in vivo, po, 8 mg/kg/day): 1/10
INTESTINE, Small Notable or abnormal, % (rat, in vivo, po, 8 mg/kg/day): 10%
INTESTINE, Small Notable or abnormal, No Exam (rat, in vivo, po, 8 mg/kg/day): 1/10
INTESTINE, Small Within normal limits, % (rat, in vivo, po, 8 mg/kg/day): 90%
INTESTINE, Small Within normal limits, No Exam (rat, in vivo, po, 8 mg/kg/day): 9/10
KIDNEY Edema, % (rat, in vivo, po, 8 mg/kg/day): 0%
KIDNEY Edema, No Exam (rat, in vivo, po, 8 mg/kg/day): 0/10
KIDNEY Notable or abnormal, % (rat, in vivo, po, 8 mg/kg/day): 0%
KIDNEY Notable or abnormal, No Exam (rat, in vivo, po, 8 mg/kg/day): 0/10
KIDNEY Within normal limits, % (rat, in vivo, po, 8 mg/kg/day): 100%
KIDNEY Within normal limits, No Exam (rat, in vivo, po, 8 mg/kg/day): 10/10
LIVER Fattening, % (rat, in vivo, po, 8 mg/kg/day): 0%
LIVER Fattening, No Exam (rat, in vivo, po, 8 mg/kg/day): 0/10
LIVER Infiltration, % (rat, in vivo, po, 8 mg/kg/day): 0%
LIVER Infiltration, No Exam (rat, in vivo, po, 8 mg/kg/day): 0/10
LIVER Notable or abnormal, % (rat, in vivo, po, 8 mg/kg/day): 0%
LIVER Notable or abnormal, No Exam (rat, in vivo, po, 8 mg/kg/day): 0/10
LIVER Within normal limits, % (rat, in vivo, po, 8 mg/kg/day): 100%
LIVER Within normal limits, No Exam (rat, in vivo, po, 8 mg/kg/day): 10/10
LUNG Lymphocytic infiltration, % (rat, in vivo, po, 8 mg/kg/day): 0%
LUNG Lymphocytic infiltration, No Exam (rat, in vivo, po, 8 mg/kg/day): 0/10
LUNG Notable or abnormal, % (rat, in vivo, po, 8 mg/kg/day): 0%
LUNG Notable or abnormal, No Exam (rat, in vivo, po, 8 mg/kg/day): 0/10
LUNG Pulmonary edema, % (rat, in vivo, po, 8 mg/kg/day): 0%
LUNG Pulmonary edema, No Exam (rat, in vivo, po, 8 mg/kg/day): 0/10
LUNG Within normal limits, % (rat, in vivo, po, 8 mg/kg/day): 100%
LUNG Within normal limits, No Exam (rat, in vivo, po, 8 mg/kg/day): 10/10
PANCREAS Notable or abnormal, % (rat, in vivo, po, 8 mg/kg/day): 0%
PANCREAS Notable or abnormal, No Exam (rat, in vivo, po, 8 mg/kg/day): 0/10
PANCREAS Within normal limits, % (rat, in vivo, po, 8 mg/kg/day): 100%
PANCREAS Within normal limits, No Exam (rat, in vivo, po, 8 mg/kg/day): 10/10
SPLEEN Notable or abnormal, % (rat, in vivo, po, 8 mg/kg/day): 0%
SPLEEN Notable or abnormal, No Exam (rat, in vivo, po, 8 mg/kg/day): 0/10
SPLEEN Within normal limits, % (rat, in vivo, po, 8 mg/kg/day): 100%
SPLEEN Within normal limits, No Exam (rat, in vivo, po, 8 mg/kg/day): 10/10
STOMACH Notable or abnormal, % (rat, in vivo, po, 8 mg/kg/day): 0%
STOMACH Notable or abnormal, No Exam (rat, in vivo, po, 8 mg/kg/day): 0/10
STOMACH Within normal limits, % (rat, in vivo, po, 8 mg/kg/day): 100%
STOMACH Within normal limits, No Exam (rat, in vivo, po, 8 mg/kg/day): 10/10
histopathology overall: toxicity to healthy tissues / organ damage (rats, oral 0.125 mg/kg/day to 8 mg/kg/day, 32 days): no significant organ damage; also recorded: no significant toxicity to healthy tissues
